# Data: patent publication US9540328B2, “(−)-(2R,3S)-2-amino-3-hydroxy-3-pyridin-4-yl-1-pyrrolidin-1-yl-propan-1-one (L)-(+) tartrate salt, its method of production and use” (Allergan, Inc., priority 2013, dated 2017)
# Structures can show the parent of a compound that is named as a salt.
# Tests used:
# Assay type in all cases: physicochemical
# [1] = Salt form optimization study: hygroscopicity / deliquescence of salts
# From the text: In another salt from optimization study for the dibasic drug molecule (+/−)-erythro-2-amino-3-hydroxy-3-pyridin-4-yl-1-pyrrolidin-1-yl-propan-1-one, the dihydrochloride was the first salt prepared and characterized. […] The following counterions were used: sulfuric acid, 1-hydroxy-2-naphthoic acid, methanesulfonic acid, naphthalene-2-sulfonic acid, benzenesulfonic acid, (L-) glutamic acid, malonic acid, citric acid, (−)-L-malic acid, lactic acid, ascorbic acid, and acetic acid. Of these the pursuance of mono-acetate, the naphthalene-2-sulfonate and the 1-hydroxy-2-naphthoate salts were recommended. […] The latter salt also represented a large counterion compared to the base and, especially at high doses, this was perceived as a definite disadvantage.
# [2] = Dynamic Vapor Sorption (DVS)
# [3] = TG-FTIR thermal decomposition
# [4] = Differential Scanning Calorimetry (DSC) degradation
# [5] = sample of FIG. 11 (crystalline salt)
structure (smiles),measurement,setting,value
"N[C@@H](C(=O)N1CCCC1)[C@@H](O)c1ccncc1 (racemic) [acetate salt, (+/−)-erythro-2-amino-3-hydroxy-3-pyridin-4-yl-1-pyrrolidin-1-yl-propan-1-one]",relative humidity at which the salt deliquesced,[1],51 % RH
"N[C@@H](C(=O)N1CCCC1)[C@@H](O)c1ccncc1 (racemic) [dihydrochloride, (+/−)-erythro-2-amino-3-hydroxy-3-pyridin-4-yl-1-pyrrolidin-1-yl-propan-1-one]",hygroscopicity,[1],hygroscopic
"N[C@@H](C(=O)N1CCCC1)[C@@H](O)c1ccncc1.O=C(O)C(O)C(O)C(=O)O [(−)-(2R,3S)-2-amino-3-hydroxy-3-pyridin-4-yl-1-pyrrolidin-1-yl-propan-1-one (L)-(+) tartrate]",hygroscopicity,"[2]; amorphous sample, FIG. 17",very hygroscopic
same,deliquescence,"[2]; amorphous sample, FIG. 17, visually confirmed",deliquescent
same,hygroscopicity,[2]; [5],very hygroscopic
same,relative humidity above which water uptake occurs,[2]; [5],above 80 % r.h.
same,deliquescence,"[2]; sample of FIG. 11 (crystalline salt), visually confirmed",deliquescent
same,degradation temperature,"[3]; amorphous sample, FIG. 15",above 160 °C
same,decomposition temperature,[3]; sample of FIG. 9 (crystalline salt),above 160 °C
same,overlapping melting and degradation temperature,"[4]; DSC first scan, sample of FIG. 10 (crystalline salt)",~160 °C
same,degradation temperature,"[4]; DSC, amorphous sample, FIG. 16",above 118 °C
